In patent publication US12599561B2, “Localized immunosuppression of allografts for peripheral nerve repair” (UNIVERSITY OF WYOMING, priority 2018, dated 2026):

What was measured:
immune cells = settings: cited from earlier work
[1] = tested on: DRGs, motor neurons, and Schwann cells; settings: 72 h
Procedure: It is contemplated that delivery of immunosuppressive agents function within a favorable therapeutic window. PNs are comprised of three major nervous system cell types, motor neurons, sensory neurons, and Schwann cells. […] FIG. 1B illustrates data regarding the toxicity of tacrolimus to DRGs, motor neurons, and Schwann cells. FIG. 1C illustrates data regarding the toxicity of prednisolone to DRGs, motor neurons, and Schwann cells.
Cells (DRGs, motor neurons, and Schwann cells) were cultured for 72 hours in various concentration of the immunosuppressive drugs and viability was evaluated using the Alamar blue viability assay. ISV's were diluted into media using a maximum of 1% dimethylsulfoxide (DMSO).
FIG. 2B illustrates data regarding the viability of DRGs, motor neurons, and Schwann cells cultured in about 10 μM tracrolimus with differing concentrations of prednisolone.

Structure (SMILES)	effective dose for inhibiting activation and proliferation of immune cells (immune cells)	in vitro effective concentration on immune cells (immune cells) [nM]	Measures in vitro tolerated concentrations on PN cells [1] [µM]	dose tolerated by the cells (up to) [1]
C[C@]12C=CC(=O)C=C1CC[C@@H]1[C@@H]2[C@@H](O)C[C@@]2(C)[C@H]1CC[C@]2(O)C(=O)CO [Prednisolone, prednisolone]	greater than 240 μM	240	200	about 200 μM
C=CC[C@@H]1/C=C(\C)C[C@H](C)C[C@H](OC)[C@H]2O[C@@](O)(C(=O)C(=O)N3CCCC[C@H]3C(=O)O[C@H](/C(C)=C/[C@@H]3CC[C@@H](O)[C@H](OC)C3)[C@H](C)[C@@H](O)CC1=O)[C@H](C)C[C@@H]2OC [Tacrolimus, tacrolimus]	50 to 100 µM	0.5 to 1.0	10 to 25	10 to 25 µM
